Laboratory results reported in article PMC6631993, “Investigation of the Binding Affinity of a Broad Array of L-Fucosides with Six Fucose-Specific Lectins of Bacterial and Fungal Origin” (Molecules, 2019).
Read-outs that look alike come from different tables or passages of the source.

Experiments:
RSL = RSL (Ralstonia pseudosolanacearum, UniProt Q8XXK6); conditions: PBS, room temperature, lectin 0.05 mg/mL
AOL = molecular target: T1, AOL (Aspergillus oryzae, UniProt Q2UNX8); assay: hemagglutination inhibition, microscope detection; type: biochemical; conditions: PBS, room temperature, lectin 0.05 mg/mL
T1 construct: gene fleA; purchased freeze-dried (TCI); dimer
T1 sequence (Q2UNX8 1-311): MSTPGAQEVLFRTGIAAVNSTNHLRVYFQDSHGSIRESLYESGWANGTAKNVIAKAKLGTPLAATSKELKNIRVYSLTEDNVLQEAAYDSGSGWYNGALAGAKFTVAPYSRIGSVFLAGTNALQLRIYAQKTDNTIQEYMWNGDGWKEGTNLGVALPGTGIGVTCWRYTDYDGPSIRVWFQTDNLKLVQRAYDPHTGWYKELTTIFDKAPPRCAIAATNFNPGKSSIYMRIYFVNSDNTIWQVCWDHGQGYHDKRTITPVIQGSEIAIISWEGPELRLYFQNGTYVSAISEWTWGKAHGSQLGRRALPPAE
Excerpt: hemagglutination inhibition, microscope detection on AOL

PA-IIL (LecB) = molecular target: T2, PA-IIL (LecB) (Pseudomonas aeruginosa, UniProt Q9HYN5); assay: hemagglutination inhibition, microscope detection; type: biochemical; conditions: 20 mM Tris/HCl, 150 mM NaCl, 5 mM CaCl2, pH 7.5, room temperature, lectin 1.25 mg/mL
T2 construct: recombinant in E. coli, D-mannose-agarose purified; homotetramer, two calcium ions per site
Excerpt: hemagglutination inhibition, microscope detection on PA-IIL (LecB)

BC2L-C = molecular target: T3, BC2L-C (Burkholderia cenocepacia, UniProt B4EH86); assay: hemagglutination inhibition, microscope detection; type: biochemical; conditions: human 0+ papain-treated red blood cells, 20 mM Tris/HCl, 150 mM NaCl, 5 mM CaCl2, pH 7.5, room temperature, lectin 0.1 mg/mL, semi-quantitative
T3 construct: gene BCAM0185; recombinant in E. coli; D-mannose-agarose purified; N-terminal domain (fucose site) is a trimer
Excerpt: hemagglutination inhibition, microscope detection on BC2L-C

AAL = molecular target: T4, AAL (Aleuria aurantia, UniProt P18891); assay: hemagglutination inhibition, microscope detection; type: biochemical; conditions: PBS, room temperature, lectin 0.05 mg/mL
T4 construct: purchased freeze-dried (Vector Laboratories); dimer
T4 sequence (P18891 2-313): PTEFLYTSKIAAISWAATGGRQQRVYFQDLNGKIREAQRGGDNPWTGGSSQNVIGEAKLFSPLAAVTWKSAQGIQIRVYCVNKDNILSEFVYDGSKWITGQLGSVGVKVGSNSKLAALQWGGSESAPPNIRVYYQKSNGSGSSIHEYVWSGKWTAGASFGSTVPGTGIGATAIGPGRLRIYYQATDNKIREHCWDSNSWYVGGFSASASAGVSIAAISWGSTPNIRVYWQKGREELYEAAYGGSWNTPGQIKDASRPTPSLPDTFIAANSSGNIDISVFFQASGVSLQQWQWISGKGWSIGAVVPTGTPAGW
Excerpt: hemagglutination inhibition, microscope detection on AAL

AFL = molecular target: T5, AFL (Aspergillus fumigatus, UniProt Q4WW81); assay: hemagglutination inhibition, microscope detection; type: biochemical; conditions: PBS; room temperature; lectin 0.05 mg/mL; valency 1
T5 construct: gene fleA; dimer of six-bladed beta-propellers
Excerpt: hemagglutination inhibition, microscope detection on AFL

T3 sequence (B4EH86 entry or part of it): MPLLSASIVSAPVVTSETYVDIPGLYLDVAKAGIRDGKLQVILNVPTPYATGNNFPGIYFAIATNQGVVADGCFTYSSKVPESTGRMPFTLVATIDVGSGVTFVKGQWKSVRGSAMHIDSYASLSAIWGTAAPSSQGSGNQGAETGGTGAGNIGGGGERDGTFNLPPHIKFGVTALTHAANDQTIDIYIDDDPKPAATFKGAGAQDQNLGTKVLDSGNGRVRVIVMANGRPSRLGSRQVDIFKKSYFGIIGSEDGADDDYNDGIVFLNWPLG
T2 sequence (Q9HYN5 entry or part of it): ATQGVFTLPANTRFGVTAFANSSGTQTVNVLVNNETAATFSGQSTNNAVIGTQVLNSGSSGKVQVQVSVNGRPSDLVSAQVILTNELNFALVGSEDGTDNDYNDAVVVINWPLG
T5 sequence (Q4WW81 whole entry): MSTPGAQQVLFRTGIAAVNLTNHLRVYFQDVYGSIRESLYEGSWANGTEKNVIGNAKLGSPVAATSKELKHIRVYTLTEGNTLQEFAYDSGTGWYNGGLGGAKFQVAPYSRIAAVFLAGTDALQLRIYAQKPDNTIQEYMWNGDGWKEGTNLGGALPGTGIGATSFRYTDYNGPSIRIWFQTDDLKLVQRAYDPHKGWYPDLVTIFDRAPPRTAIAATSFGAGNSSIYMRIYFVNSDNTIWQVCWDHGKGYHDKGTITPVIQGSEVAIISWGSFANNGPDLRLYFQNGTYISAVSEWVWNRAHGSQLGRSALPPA

C[C@@H]1O[C@@H](OCc2cn(CCN=[N+]=[N-])nn2)[C@@H](O)[C@H](O)[C@@H]1O [compound 12, Compound 12]
RSL / Potency (RSL; valency 1): 32 fold vs L-fucose

C[C@@H]1O[C@@H](OCc2cn(CCOCCOCCOCCn3cc(COCC(COCc4cn(CCOCCOCCOCCn5cc(CO[C@@H]6O[C@@H](C)[C@@H](O)[C@@H](O)[C@@H]6O)nn5)nn4)(COCc4cn(CCOCCOCCOCCn5cc(CO[C@@H]6O[C@@H](C)[C@@H](O)[C@@H](O)[C@@H]6O)nn5)nn4)COCc4cn(CCOCCOCCOCCn5cc(CO[C@@H]6O[C@@H](C)[C@@H](O)[C@@H](O)[C@@H]6O)nn5)nn4)nn3)nn2)[C@@H](O)[C@H](O)[C@@H]1O [compound 2, Compound 2]
RSL / β^# (AOL; 0+ papain-treated red blood cells, semi-quantitative, valency 4): 256 fold vs L-fucose | AFL / β^# (PA-IIL (LecB); valency 4): 32 fold vs L-fucose | RSL / Potency (RSL; valency 4): 1024 fold vs L-fucose | BC2L-C / Potency (BC2L-C; valency 4): 16 fold vs L-fucose | AFL / Potency (AAL; valency 4): 128 fold vs L-fucose

C[C@@H]1O[C@@H](OCc2cn(CCOCCOCCOCCn3cc(CO[C@@H]4O[C@@H](C)[C@@H](O)[C@@H](O)[C@@H]4O)nn3)nn2)[C@@H](O)[C@H](O)[C@@H]1O [compound 14, Compound 14]
RSL / Potency (RSL; valency 2): 128 fold vs L-fucose

C[C@@H]1O[C@@H](SCCO)[C@@H](O)[C@H](O)[C@@H]1O [compound 21, Compound 21]
RSL / Potency (AOL; valency 1): 4 fold vs L-fucose | AFL / Potency (AFL): 2 fold vs L-fucose | RSL / Potency (PA-IIL (LecB); valency 1): 4 fold vs L-fucose | RSL / Potency (RSL; valency 1): 4 fold vs L-fucose | RSL / Potency (BC2L-C; valency 4 buffer and lectin concentration, valency 1): 4 fold vs L-fucose | AFL / Potency (AAL; valency 1): 2 fold vs L-fucose

C[C@@H]1O[C@@H](SCCS(=O)(=O)O)[C@@H](O)[C@H](O)[C@@H]1O [compound 22, Compound 22]
RSL / Potency (BC2L-C; valency 4): 4 fold vs L-fucose

C#CCO[C@@H]1O[C@@H](C)[C@@H](O)[C@@H](O)[C@@H]1O [compound 11, Compound 11]
AFL / Potency (AOL; valency 1): 4 fold vs L-fucose | AFL / Potency (AFL): 4 fold vs L-fucose | AFL / Potency (PA-IIL (LecB); valency 1): 4 fold vs L-fucose | RSL / Potency (RSL; valency 1): 8 fold vs L-fucose | AFL / Potency (AAL; valency 1): 4 fold vs L-fucose
